From US20250129080A1, “COMPOSITIONS AND METHODS OF USING THE SAME FOR TREATMENT OF NEURODEGENERATIVE AND MITOCHONDRIAL DISEASE” (Mitokinin, Inc., priority 2021, published 2025)

Tests used:
SKOV3 cells = experiment: In vitro mitosafety (glucose/galactose) assay; type: cell-based; settings: highest mito-safe dose (gal/glc >0.80, IC20, SKOV3 cells, 20 hours) divided by mt-Keima EC50
Description: Briefly, SKOV3 cells (ATCC HTB-77) were plated in DMEM (Corning 10-013-CV) medium containing 25 mM glucose or DMEM with no glucose (Gibco 11966-025) supplemented with 10 mMV galactose at 9,000 cells/well in 96 well plates (Corning costar 3610). 24 hrs later, compounds, in DMSO, were added at various concentrations to a final 0.1% DMSO for all wells. […] After a 15 minute incubation cellular ATP levels were read out using a Promega GloMax® DiscoverMicroplate Reader.
The ratio of relative CellTiter-Glo values from cells grown in galactose to cells grown in glucose was determined (gal/glc ratio). The gal/glc ratio vs concentration is then graphed, and non-linear regression is used to find the highest concentration of MTK compound at which gal/glc >0.80 (the “highest mito-safe dose”, or IC20).

[1] = system: HeLa cells expressing mt-Keima and YFP-Parkin (HeLa MKYP); experiment: Human mt-Keima mitophagy assay; type: cell-based; settings: Homo sapiens, HeLa, 16 hrs with compound, then FCCP/oligomycin for 6 hours, FACS
Description: Briefly, HeLa cells expressing mt-Keima and YFP-Parkin (HeLa MKYP) were plated at 10,000 cells/well in 96 well plates along with compounds at various concentrations. Following 16 hrs of incubation, cells were treated with […] FCCP/oligomycin for 6 hours, then analyzed via FACS for the presence of mitochondria in lysosomes (as determined by an emissions spectrum shift from the pH-sensitive mt-Keima tag).

With `F[C@H]1CCN([C@H]2COc3ccccc3[C@@H]2Nc2nccc3[nH]c(C(F)(F)F)cc23)C1` [EP-0043870, N-((3R,4S)-3-((S)-3-fluoropyrrolidin-1-yl)chroman-4-yl)-2-(trifluoromethyl)-1H-pyrrolo[3,2-c]pyridin-4-amine] as the compound, how does the “Mito-Safety Index (highest safe dose/EC50)” value (shortened to “Mito-Safety Index”) (SKOV3 cells) read?
Its value is 67.5.

What about the EC50 [1] of the same compound?
Its EC50 is 0.12 µM.

Which results are given for `C[C@@H]1CN([C@H]2COc3ccc(F)cc3[C@@H]2Nc2ncnc3[nH]c(C(F)(F)F)cc23)CCO1` [EP-0043863, N-((3R,4S)-6-fluoro-3-((R)-2-methylmorpholino)chroman-4-yl)-6-(trifluoromethyl)-7H-pyrrolo[2,3-d]pyrimidin-4-amine]?
Mito-Safety Index (highest safe dose/EC50) (SKOV3 cells): 40.0; EC50 [1]: 0.17 µM

What does the source list for `N#C[C@H]1CCN([C@H]2COc3ccccc3[C@@H]2Nc2ncnc3[nH]c(C4CC4)cc23)C1` [EP-0042930]?
Mito-Safety Index (highest safe dose/EC50) (SKOV3 cells): 105.8; EC50 [1]: 0.038 µM

With `Fc1ccc2c(c1)OC[C@H](N1CCC3(CC3)C1)[C@H]2Nc1ncnc2[nH]c(C(F)(F)F)cc12` [EP-0043913, N-((3R,4S)-7-fluoro-3-(5-azaspiro[2.4]heptan-5-yl)chroman-4-yl)-6-(trifluoromethyl)-7H-pyrrolo[2,3-d]pyrimidin-4-amine] as the compound, how does the “Mito-Safety Index” value (SKOV3 cells) read?
The value was 67.6.

What about the EC50 [1] of the same compound?
The EC50 was 0.37 µM.

What does the source list for `OC1([C@H]2COc3ccccc3[C@@H]2Nc2ncnc3[nH]c(C(F)(F)F)cc23)CCOCC1` [EP-0042356, 4-[(3R,4R)-4-[[6-(Trifluoromethyl)-7H-Pyrrolo[2,3-D]Pyrimidin-4-Yl]Amino]Chroman-3-Yl]Tetrahydropyran-4-Ol]?
Mito-Safety Index (highest safe dose/EC50) (SKOV3 cells): 114.63; EC50 [1]: 0.218 µM

With `N#C[C@H]1CCN([C@H]2COc3ccccc3[C@@H]2Nc2ncnc3[nH]c(C(F)(F)F)cc23)C1` [EP-0043263, (S)-1-((3R,4S)-4-((6-(Trifluoromethyl)-7H-Pyrrolo[2,3-D]Pyrimidin-4-Yl)Amino)Chroman-3-Yl)Pyrrolidine-3-Carbonitrile] as the compound, how does the “Mito-Safety Index” value (SKOV3 cells) read?
The value was 120.52.

What about the EC50 [1] of the same compound?
The EC50 was 0.097 µM.

What does the source list for `N#C[C@@H]1CCN([C@H]2COc3ccccc3[C@@H]2Nc2ncnc3[nH]c(C(F)(F)F)cc23)C1` [EP-0043264, (R)-1-((3R,4S)-4-((6-(Trifluoromethyl)-7H-Pyrrolo[2,3-D]Pyrimidin-4-Yl)Amino)Chroman-3-Yl)Pyrrolidine-3-Carbonitrile]?
Mito-Safety Index (highest safe dose/EC50) (SKOV3 cells): 91.68; EC50 [1]: 0.129 µM

Which “Mito-Safety Index” value (SKOV3 cells) does the source give for `C[C@@H]1CN([C@H]2COc3cc(F)ccc3[C@@H]2Nc2ncnc3[nH]c(C4CCC4)cc23)CCO1` [EP-0044008, 6-cyclobutyl-N-((3R,4S)-7-fluoro-3-((R)-2-methylmorpholino)chroman-4-yl)-7H-pyrrolo[2,3-d]pyrimidin-4-amine] here?
The value was 2500.0.

What about the EC50 [1] of the same compound?
The EC50 was 0.01 µM.

What does the source list for `F[C@H]1CCN([C@H]2COc3ccccc3[C@@H]2Nc2ncnc3[nH]c(C(F)(F)F)cc23)C1` [EP-0042972, N-((3R,4S)-3-((S)-3-Fluoropyrrolidin-1-Yl)Chroman-4-Yl)-6-(Trifluoromethyl)-7H-Pyrrolo[2,3-D]Pyrimidin-4-Amine]?
Mito-Safety Index (highest safe dose/EC50) (SKOV3 cells): 62.14; EC50 [1]: 0.387 µM

With `FC(F)(F)C1CN([C@H]2COc3ccccc3[C@@H]2Nc2ncnc3[nH]c(C4CC4)cc23)CCO1` (single isomer, unassigned) [EP-0042928] as the compound, how does the “Mito-Safety Index” value (SKOV3 cells) read?
Its value is 42.17.

And the EC50 [1]?
Its EC50 is 0.17 µM.

`OC1([C@H]2COc3ccccc3[C@@H]2Nc2ncnc3[nH]c(C4CC4)cc23)CCOCC1` [EP-0042202, 4-[(3R,4R)-4-[(6-Cyclopropyl-7H-Pyrrolo[2,3-D]Pyrimidin-4-Yl)Amino]Chroman-3-Yl]Tetrahydropyran-4-Ol] was tested. Which “Mito-Safety Index” value (SKOV3 cells) did it give?
Its value is 116.5.

And the EC50 [1]?
The EC50 was 0.215 µM.

`F[C@@H]1CCN([C@H]2COc3ccccc3[C@@H]2Nc2ncnc3[nH]c(C4CC4)cc23)C1` [EP-0042534, 6-Cyclopropyl-N-((3R,4S)-3-((R)-3-Fluoropyrrolidin-1-Yl)Chroman-4-Yl)-7H-Pyrrolo[2,3-D]Pyrimidin-4-Amine] was tested. Which “Mito-Safety Index” value (SKOV3 cells) did it give?
Its value is 71.21.

What about the EC50 [1] of the same compound?
Its EC50 is 0.349 µM.

With `Fc1ccc2c(c1)OC[C@H](N1CC[C@H](F)C1)[C@H]2Nc1ncnc2[nH]c(C(F)(F)F)cc12` [EP-0043839, N-((3R,4S)-7-fluoro-3-((S)-3-fluoropyrrolidin-1-yl)chroman-4-yl)-6-(trifluoromethyl)-7H-pyrrolo[2,3-d]pyrimidin-4-amine] as the compound, how does the “Mito-Safety Index” value (SKOV3 cells) read?
Its value is 41.3.

And the EC50 [1]?
The EC50 was 0.48 µM.

`COC1CN([C@H]2COc3ccccc3[C@@H]2Nc2nccc3[nH]c(C(F)(F)F)cc23)C1` [EP-0043896, N-((3R,4S)-3-(3-methoxyazetidin-1-yl)chroman-4-yl)-2-(trifluoromethyl)-1H-pyrrolo[3,2-c]pyridin-4-amine] was tested. Which “Mito-Safety Index” value (SKOV3 cells) did it give?
The value was 126.7.

What about the EC50 [1] of the same compound?
The EC50 was 0.15 µM.

Which results are given for `C[C@@H]1CN([C@H]2COc3cc(F)ccc3[C@@H]2Nc2ncnc3c2cc(C(F)(F)F)n3C)CCO1` [EP-0043854, N-((3R,4S)-7-fluoro-3-((R)-2-methylmorpholino)chroman-4-yl)-7-methyl-6-(trifluoromethyl)-7H-pyrrolo[2,3-d]pyrimidin-4-amine]?
Mito-Safety Index (highest safe dose/EC50) (SKOV3 cells): 99.6; EC50 [1]: 0.25 µM

What does the source list for `C[C@@H]1CN([C@H]2COc3cccc(F)c3[C@@H]2Nc2ncnc3[nH]c(C(F)(F)F)cc23)CCO1` [EP-0043859, N-((3R,4S)-5-fluoro-3-((R)-2-methylmorpholino)chroman-4-yl)-6-(trifluoromethyl)-7H-pyrrolo[2,3-d]pyrimidin-4-amine]?
Mito-Safety Index (highest safe dose/EC50) (SKOV3 cells): 31.4; EC50 [1]: 0.07 µM

What does the source list for `FC1(F)CCN([C@H]2COc3ccccc3[C@@H]2Nc2ncnc3[nH]c(C4CC4)cc23)C1` [EP-0042660, 6-Cyclopropyl-N-((3R,4S)-3-(3,3-Difluoropyrrolidin-1-Yl)Chroman-4-Yl)-7H-Pyrrolo[2,3-D]Pyrimidin-4-Amine]?
Mito-Safety Index (highest safe dose/EC50) (SKOV3 cells): 179.63; EC50 [1]: 0.139 µM

What does the source list for `c1ccc2c(c1)OC[C@H](N1CCCC1)[C@H]2Nc1ncnc2[nH]c(C3CC3)cc12` [EP-0042659, 6-Cyclopropyl-N-((3R,4S)-3-(Pyrrolidin-1-Yl)Chroman-4-Yl)-7H-Pyrrolo[2,3-D]Pyrimidin-4-Amine]?
Mito-Safety Index (highest safe dose/EC50) (SKOV3 cells): 54.54; EC50 [1]: 0.251 µM

Which results are given for `CO[C@H]1CCCN([C@H]2COc3ccccc3[C@@H]2Nc2ncnc3[nH]c(C4CC4)cc23)C1` [EP-0042537, 6-Cyclopropyl-N-((3R,4S)-3-((S)-3-Methoxypiperidin-1-Yl)Chroman-4-Yl)-7H-Pyrrolo[2,3-D]Pyrimidin-4-Amine]?
Mito-Safety Index (highest safe dose/EC50) (SKOV3 cells): 37.03; EC50 [1]: 0.268 µM

For `C[C@@H]1CN([C@H]2COc3c(F)cccc3[C@@H]2Nc2ncnc3[nH]c(C(F)(F)F)cc23)CCO1` [EP-0043827, N-((3R,4S)-8-fluoro-3-((R)-2-methylmorpholino)chroman-4-yl)-6-(trifluoromethyl)-7H-pyrrolo[2,3-d]pyrimidin-4-amine], which “Mito-Safety Index” value (SKOV3 cells) is on record?
The value was 108.7.

And the EC50 [1]?
Its EC50 is 0.23 µM.

Which “Mito-Safety Index” value (SKOV3 cells) does the source give for `Fc1ccc2c(c1)OC[C@H](N1CCOC3(CC3)C1)[C@H]2Nc1ncnc2[nH]c(C(F)(F)F)cc12` [EP-0043834, N-((3R,4S)-7-fluoro-3-(4-oxa-7-azaspiro[2.5]octan-7-yl)chroman-4-yl)-6-(trifluoromethyl)-7H-pyrrolo[2,3-d]pyrimidin-4-amine] here?
Its value is 40.9.

What about the EC50 [1] of the same compound?
Its EC50 is 0.56 µM.

Which “Mito-Safety Index” value (SKOV3 cells) does the source give for `FC(F)(F)c1cc2c(N[C@H]3c4ccccc4OC[C@@H]3N3CCOC4(CC4)C3)nccc2[nH]1` [EP-0043895, N-((3R,4S)-3-(4-oxa-7-azaspiro[2.5]octan-7-yl)chroman-4-yl)-2-(trifluoromethyl)-1H-pyrrolo[3,2-c]pyridin-4-amine] here?
Its value is 94.7.

And the EC50 [1]?
Its EC50 is 0.17 µM.

For `c1ccc2c(c1)OC[C@H](N1CCC3(CCCO3)C1)[C@H]2Nc1ncnc2[nH]c(C3CC3)cc12` (single isomer, unassigned) [EP-0042935], which “Mito-Safety Index” value (SKOV3 cells) is on record?
The value was 211.76.

`FC(F)C1CN([C@H]2COc3ccccc3[C@@H]2Nc2ncnc3[nH]c(C(F)(F)F)cc23)C1` [EP-0043831, N-((3R,4S)-3-(3-(difluoromethyl)azetidin-1-yl)chroman-4-yl)-6-(trifluoromethyl)-7H-pyrrolo[2,3-d]pyrimidin-4-amine] was tested. Which “Mito-Safety Index” value (SKOV3 cells) did it give?
The value was 41.7.

What about the EC50 [1] of the same compound?
The EC50 was 0.6 µM.

How did the “Mito-Safety Index” value (SKOV3 cells) turn out when `CO[C@H]1CCCN([C@H]2COc3ccccc3[C@@H]2Nc2ncnc3[nH]c(C(F)(F)F)cc23)C1` [EP-0043439, N-((3R,4S)-3-((S)-3-Methoxypiperidin-1-Yl)Chroman-4-Yl)-6-(Trifluoromethyl)-7H-Pyrrolo[2,3-D]Pyrimidin-4-Amine] was run?
The value was 48.93.

And the EC50 [1]?
Its EC50 is 0.448 µM.

Which results are given for `C[C@@H]1CCN([C@H]2COc3ccccc3[C@@H]2Nc2ncnc3[nH]c(C(F)(F)F)cc23)C1` [EP-0043821, N-((3R,4S)-3-((R)-3-methylpyrrolidin-1-yl)chroman-4-yl)-6-(trifluoromethyl)-7H-pyrrolo[2,3-d]pyrimidin-4-amine]?
Mito-Safety Index (highest safe dose/EC50) (SKOV3 cells): 70.0; EC50 [1]: 0.03 µM

Which “Mito-Safety Index” value (SKOV3 cells) does the source give for `FC(F)OC1CN([C@H]2COc3ccccc3[C@@H]2Nc2ncnc3[nH]c(C4CC4)cc23)C1` (relative stereo) [EP-0041832, 6-Cyclopropyl-N-[Trans-3-[3-(Difluoromethoxy)Azetidin-1-Yl]Chroman-4-Yl]-7H-Pyrrolo[2,3-D]Pyrimidin-4-Amine] here?
The value was 72.23.

And the EC50 [1]?
Its EC50 is 0.346 µM.

Which results are given for `FC(F)(F)c1cc2c(N[C@H]3c4ccccc4OC[C@@H]3C3(F)CCOCC3)ncnc2[nH]1` [EP-0043236, N-[(3R,4R)-3-(4-Fluorotetrahydropyran-4-Yl)Chroman-4-Yl]-6-(Trifluoromethyl)-7H-Pyrrolo[2,3-D]Pyrimidin-4-Amine]?
Mito-Safety Index (highest safe dose/EC50) (SKOV3 cells): 59.18; EC50 [1]: 0.415 µM
